The source made the active and inactive calls. No cut-off for these calls is given here.

Here are results for 45 compounds from ChEMBL document CHEMBL3870328, “Synthesis of novel Ral inhibitors: An in vitro and in vivo study” (Bioorg Med Chem Lett, 2016).

The nature of data set [1]: (§1) Cytotoxicity against human NCI-H2122 cells under anchorage-independent condition assessed as cell growth inhibition after 10 days by nitro blue tetrazolium-based microscopic analysis. It counts as functional. The settings on record: NCI-H2122, 240 h.
Data set [2] can be described thus: Drug level in CD1 mouse liver microsomes treated with 6-amino-4-(2,5-dimethoxyphenyl)-3-(naphthalen-2-yl)-1,4-dihydropyrano[2,3-c]pyrazole-5-carbonitrile at 16.7 uM assessed as CYP450-mediated compound formation in presence of NADPH by LC-MS/MS analysis. Type of data set: ADME. For orientation: Liver microsomes are vesicles of endoplasmic reticulum, rich in cytochrome P450 enzymes.

Data set [3] is described as follows: Drug uptake in brain of mouse xenografted with human NCI-H2122 cells at 50 mg/kg, ip after 3 hrs by LC-MS/MS analysis. The conditions noted are these: read-out: Drug uptake. Type of data set: ADME, organism-based. (In general: In xenograft studies the graft and the host belong to different species.)
Data set [4] is described as follows: Drug uptake in heart of mouse xenografted with human NCI-H2122 cells at 50 mg/kg, ip after 3 hrs by LC-MS/MS analysis. The conditions noted are these: read-out: Drug uptake. It counts as ADME, organism-based.
The nature of data set [5]: Drug uptake in kidney of mouse xenografted with human NCI-H2122 cells at 50 mg/kg, ip after 3 hrs by LC-MS/MS analysis. Type of data set: ADME, organism-based. The settings on record: read-out: Drug uptake.
Data set [6] can be described thus: Drug uptake in liver of mouse xenografted with human NCI-H2122 cells at 50 mg/kg, ip after 3 hrs by LC-MS/MS analysis. Type of data set: ADME, organism-based. The conditions noted are these: read-out: Drug uptake.
A short description of data set [7]: Drug uptake in lungs of mouse xenografted with human NCI-H2122 cells at 50 mg/kg, ip after 3 hrs by LC-MS/MS analysis. Type of data set: ADME, organism-based. The settings on record: lung, read-out: Drug uptake.
Data set [8] is described as follows: Drug uptake in tumor of mouse xenografted with human NCI-H2122 cells at 50 mg/kg, ip after 3 hrs by LC-MS/MS analysis. It counts as ADME, organism-based, Neoplasm. The settings on record: read-out: Drug uptake.
Data set [9] in a line: Plasma concentration in mouse xenografted with human NCI-H2122 cells at 50 mg/kg, ip after 3 hrs by LC-MS/MS analysis. It counts as ADME, organism-based.
Data set [10] has as its target T1, Ras-related protein Ral-A (Homo sapiens) (UniProt P11233).
T1 sequence (whole entry): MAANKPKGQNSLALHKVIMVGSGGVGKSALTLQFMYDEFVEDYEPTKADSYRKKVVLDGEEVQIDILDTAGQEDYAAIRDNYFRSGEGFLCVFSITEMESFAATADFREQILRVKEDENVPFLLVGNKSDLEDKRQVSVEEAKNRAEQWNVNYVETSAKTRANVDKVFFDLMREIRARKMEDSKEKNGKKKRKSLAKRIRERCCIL
As to the kind of experiment: Inhibition of RalA activity in human H2122 spheroids after 4 hrs by RalBP1 pull down assay.

Data set [11] is described as follows: Half life in ip dosed mouse plasma. It counts as ADME, organism-based.
Data set [12] deals with T2, Ras-related protein Ral-B (Homo sapiens) (UniProt P11234).
T2 sequence (whole entry): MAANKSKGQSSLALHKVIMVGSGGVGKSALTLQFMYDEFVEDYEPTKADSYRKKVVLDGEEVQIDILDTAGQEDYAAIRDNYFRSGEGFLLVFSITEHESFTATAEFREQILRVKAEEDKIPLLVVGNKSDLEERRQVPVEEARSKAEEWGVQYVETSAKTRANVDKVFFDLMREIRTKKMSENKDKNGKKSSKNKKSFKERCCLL
As to the kind of experiment: Inhibition of RalB activity in human H2122 spheroids after 4 hrs by RalBP1 pull down assay.

The subject of another data set is NCI-H2122. Described as §1. Type of data set: functional.

As to `COc1ccc(-c2nn(C)c3c2C(c2ccc(OC)cc2)C(C#N)=C(N)O3)cc1` (stereo not given), the IC50 in data set [1] is more than 10 µM.
For `Cn1nc(-c2ccccc2)c2c1OC(N)=C(C#N)C2c1ccncc1` (stereo not given), the IC50 in data set [1] came to 5.2 µM.
`COc1cc(OC)c(C2C(C#N)=C(N)Oc3c2c(C)nn3C)c(OC)c1` (stereo not given): the IC50 in [1] was found to be 1.6 µM.
On to `COc1ccc(-c2nn(-c3ccccc3)c3c2C(c2ccccc2)C(C#N)=C(N)O3)cc1` (stereo not given), for which, in data set [1], the IC50 came out at 7.2 µM.
`COc1ccc(C2C(C#N)=C(N)Oc3c2c(-c2ccccc2)nn3-c2ccccc2)cc1` (stereo not given): the IC50 in data set [1] worked out at 3.1 µM.
Regarding `N#CC1=C(N)Oc2[nH]nc(-c3ccc4ccccc4c3)c2C1c1cc(O)ccc1O` (stereo not given), the Drug metabolism entry in data set [2] was “Metabolite_Detected”.
Regarding `Cc1nn(C)c2c1C(c1ccccc1)C(C#N)=C(N)O2` (stereo not given), the 50% inhibitory concentration (IC50) in [1] stood at 9.1 µM.
On the same count and under the same terms, as for `Cc1nn(C)c2c1C(c1ccc3c(c1)OCCO3)C(C#N)=C(N)O2` (stereo not given), the figure is 8.6 µM.
The same measure, in the same setting: as for `COc1ccc(C2C(C#N)=C(N)Oc3c2c(-c2ccccc2)nn3C)cc1` (stereo not given), the figure is more than 10 µM; as for `CC(C)c1ccc(C2C(C#N)=C(N)Oc3c2c(-c2ccccc2)nn3C)cc1` (stereo not given), 5.4 µM; as for `Cn1nc(-c2ccccc2)c2c1OC(N)=C(C#N)C2c1cccnc1` (stereo not given), more than 10 µM.
Still for that read-out and setting: as for `COc1ccc(C2C(C#N)=C(N)Oc3c2c(C)nn3C)cc1F` (stereo not given), the figure is 5.8 µM.
For `Cc1nn(-c2ccccc2)c2c1C(c1ccc(F)cc1)C(C#N)=C(N)O2` (stereo not given), the 50% inhibitory concentration (IC50) in [1] amounted to 6.6 µM.
Same read-out and setting: as for `Cc1nn(C)c2c1C(c1cc(F)cc(F)c1)C(C#N)=C(N)O2` (stereo not given), the figure is 4.2 µM; as for `Cc1nn(C)c2c1C(c1ccc(-n3ccnc3)cc1)C(C#N)=C(N)O2` (stereo not given), 1.7 µM; as for `Cc1nn(C)c2c1C(c1ccc(OC(F)(F)F)cc1)C(C#N)=C(N)O2` (stereo not given), 2.9 µM.
On to `COc1ccc(C2C(C#N)=C(N)Oc3c2c(C)nn3C)cc1` (stereo not given), for which, in data set [1], the concentration for half-maximal inhibition (IC50) stood at 8.6 µM.
Still for that read-out and setting: as for `Cn1nc(-c2ccccc2)c2c1OC(N)=C(C#N)C2c1ccc(C(F)(F)F)cc1` (stereo not given), the figure is 4.1 µM; as for `COc1ccc(-c2nn(-c3ccccc3)c3c2C(c2ccc(F)cc2)C(C#N)=C(N)O3)cc1OC` (stereo not given), 7.6 µM.
Still for that read-out and setting: under `Cc1nn(C)c2c1C(c1cccc(Br)n1)C(C#N)=C(N)O2` (stereo not given) stands 2.4 µM.
On to `Cn1nc(-c2ccccc2)c2c1OC(N)=C(C#N)C2c1ccc(C#N)cc1` (stereo not given), for which the IC50 in data set [1] was 5.2 µM.
Take `COc1ccc(-c2nn(C)c3c2C(c2ccccc2)C(C#N)=C(N)O3)cc1OC` (stereo not given): in data set [1], the half-inhibitory concentration (IC50) was more than 10 µM.
On to `COc1ccc(C2C(C#N)=C(N)Oc3c2c(-c2ccccc2)nn3C)cc1F` (stereo not given), for which the IC50 in [1] was more than 10 µM.
`Cn1nc(-c2ccccc2)c2c1OC(N)=C(C#N)C2c1ccccc1` (stereo not given): the half-inhibitory concentration (IC50) in data set [1] is more than 10 µM.
Consider `COc1ccc(-c2nn(-c3ccccc3)c3c2C(c2ccc(OC)cc2)C(C#N)=C(N)O3)cc1` (stereo not given), for which, in [1], the concentration for half-maximal inhibition (IC50) turned out to be 1.1 µM.
Regarding `COc1ccc(-c2nn(C)c3c2C(c2ccccc2)C(C#N)=C(N)O3)cc1` (stereo not given), the half-maximal inhibitory concentration (IC50) in [1] was more than 10 µM.
For `Cn1nc(-c2ccccc2)c2c1OC(N)=C(C#N)C2c1ccc(OC(F)(F)F)cc1` (stereo not given), in data set [1], the IC50 came to 5.5 µM.
The same measure, in the same setting: as for `COc1ccc(C2C(C#N)=C(N)Oc3c2c(C)nn3-c2ccccc2)cc1` (stereo not given), the figure is 4.1 µM.
On to `Cn1nc(-c2ccccc2)c2c1OC(N)=C(C#N)C2c1ccc2c(c1)OCCO2` (stereo not given), for which the concentration for half-maximal inhibition (IC50) in data set [1] is 8.4 µM.
The same measure, in the same setting: under `COc1ccc(-c2nn(-c3ccccc3)c3c2C(c2ccc(F)cc2)C(C#N)=C(N)O3)cc1` (stereo not given) stands 6 µM; under `COc1ccc(-c2nn(C)c3c2C(c2ccc(F)cc2)C(C#N)=C(N)O3)cc1` (stereo not given), more than 10 µM; under `Cc1nn(C)c2c1C(c1cccnc1)C(C#N)=C(N)O2` (stereo not given), 8.8 µM.
Consider `Cc1nn(C)c2c1C(c1ccc(C(F)(F)F)cc1)C(C#N)=C(N)O2` (stereo not given), for which the concentration at 3 h in [3] worked out at 1390 ng/g; in data set [4], 2080 ng/g; in data set [5] it was 2400 ng/g; in data set [6], 4070 ng/g; in data set [7], 1870 ng/g; in data set [8], 1220 ng/g. This compound also registered a concentration at 3 h in [9] of 5640 ng/mL. In [1], the concentration for half-maximal inhibition (IC50) was determined as 2.2 µM. The inhibition entry in data set [10] and in data set [12] was “Dose-dependent effect” throughout. In addition, the half-life in data set [11] was less than 1.5 h.
Turning to `Cn1nc(-c2ccccc2)c2c1OC(N)=C(C#N)C2c1cccc(Br)n1` (stereo not given), the half-maximal inhibitory concentration (IC50) in data set [1] is 1.7 µM.
As for `Cc1nn(-c2ccccc2)c2c1C(c1ccccc1)C(C#N)=C(N)O2` (stereo not given), the IC50 in [1] is 2.7 µM.
Still for that read-out and setting: as for `Cc1nn(C)c2c1C(c1ccc(C#N)cc1)C(C#N)=C(N)O2` (stereo not given), the figure is 5.6 µM; as for `COc1ccc(-c2nn(C)c3c2C(c2ccc(F)cc2)C(C#N)=C(N)O3)cc1OC` (stereo not given), more than 10 µM.
For `Cc1nn(C)c2c1C(c1ccc(F)cc1)C(C#N)=C(N)O2` (stereo not given), in [1], the IC50 is more than 10 µM.
Still for that read-out and setting: under `Cc1nn(C)c2c1C(c1ccncc1)C(C#N)=C(N)O2` (stereo not given) stands 4.1 µM.
On to `N#CC1=C(N)Oc2c(c(-c3ccccc3)nn2-c2ccccc2)C1c1ccccc1` (stereo not given), for which the IC50 in [1] came to 4.1 µM.
On the same count and under the same terms, as for `N#CC1=C(N)Oc2c(c(-c3ccccc3)nn2-c2ccccc2)C1c1ccc(F)cc1` (stereo not given), the figure is 4.1 µM.
For the compound `Cn1nc(-c2ccccc2)c2c1OC(N)=C(C#N)C2c1ccc(-n2ccnc2)cc1` (stereo not given), the concentration at 3 h was 170 ng/g in data set [3]; 930 ng/g in data set [4]; 630 ng/g in [5]; 980 ng/g in [6]; 1090 ng/g in data set [7]; 380 ng/g in data set [8]. The concentration at 3 h in data set [9] came to 490 ng/mL. In the data set on NCI-H2122, the “growth inhibition (GI)” value was “Active”. For the same compound, the inhibition result in [10] and in data set [12] was “Dose-dependent effect” each time. The same compound returned a half-life in [11] of less than 1.5 h.
Consider `Cn1nc(-c2ccccc2)c2c1OC(N)=C(C#N)C2c1ccc(F)cc1` (stereo not given), for which, in data set [1], the IC50 was more than 10 µM.
The same measure, in the same setting: as for `Cn1nc(-c2ccccc2)c2c1OC(N)=C(C#N)C2c1cc(F)cc(F)c1` (stereo not given), the figure is 6.6 µM; as for `Cc1nn(C)c2c1C(c1ccc(C(C)C)cc1)C(C#N)=C(N)O2` (stereo not given), 4 µM.

The IC50 is the midpoint of a concentration-inhibition curve. The term half-life denotes how long it takes for the measured level to halve. Lower therefore signals fast loss.
